The text below walks through data of patent US11628133B2, “Uses of the peptide of sequence His-D-Trp-Ala-Trp-d-Phe-Lys-NH2 for reducing or delaying the appearance of cell senescence and signs of skin aging” (ISP INVESTMENTS LLC, priority 2015, dated 2023).

Where no end group is shown, it is not given here. [ ]: non-standard residue; d: D form.

Assay [1] has as its system prolidase. Briefly: Activity of prolidase in human fibroblasts (Gly-Pro substrate, Chinard's reagent). Type of assay: cell-based. The conditions noted are these: untreated = 100. The protocol:
Protocol: Cultured human fibroblasts were treated with hexapeptide-2 in a concentration of 0.5 and 1 μM after dilution in a culture medium, for 24 hours (2 applications per day). At the same time, fibroblasts were treated with an activator and an inhibitor of prolidase: retinoic acid (Sigma, Ref. R2625) and Cpz-Pro (Bachem, Ref. 4001343). Next, the cells were detached from the dish with the aid of a 150 mM NaCl solution. After having recovered the cellular pellet and activating the prolidase with a solution containing 2 mM MnCl2 for 2 hours at 37° C., the prolidase substrate was added: 47 mM of Glycine-Proline (Sigma, Ref. G3002) for 1 hour at 37° C. Next, the amount of proline contained in each sample was determined at a wavelength of 515 nm using Chinard's reagent. At the same time, a proline concentration range was produced in order to establish a calibration curve. The amount of protein was determined using the BCA protein assay kit (Thermo Scientific, Ref. 23225), which enabled the ratio of proline to the number of proteins in each sample to be recorded.

The subject of assay [2] is miRNA-29a 3p. Briefly: Expression of miRNA-29a 3p in human fibroblasts from donors of different ages (qPCR). The conditions noted are these: overnight, concentration (0.5 or 1 μM) not stated. The format is cell-based. The protocol:
Protocol: Human fibroblasts from 3 donors were treated with hexapeptide-2 in a concentration of 0.5 and 1 μM in culture medium overnight (1 application).
The miRNAs were extracted with the aid of an extraction kit (Ambion, Ref. AM1561), then reverse transcribed with a specific kit (Applied Biosystem, Ref 4374966). A real time PCR was carried out in a thermocycler using a TaqMan Gene Expression Assay specific for miRNA-29a 3p (Applied Biosystems, Ref 002112) and a TaqMan Gene Expression Assays specific for RNU44 used as the control endogen (Applied Biosystems, Ref. 001094). The relative quantification if the expression of miRNA-29a 3p was carried out by the comparative Ct method.
On the technique in general: In qPCR the cycle at which signal appears reflects the starting amount.

In assay [3] the test system is human fibroblasts made senescent by transfection with the siRNA FOXO3a. Kind of assay: Activity of β-galactosidase in human fibroblasts made senescent by transfection with the siRNA FOXO3a. Type of assay: cell-based. The conditions noted are these: 1 μM, 48 hours, siRNA FOXO3a transfected cells; results not shown. The protocol:
Protocol: Cultured human fibroblasts were treated or not treated with a specific siRNA of FOXO3a (Invitrogen, Ref. HSS177176) in a final concentration of 25 nM using the technique of transfection by Lipofectamine™ RNAiMAX (Invitrogen, Ref 56531) and treated or not treated with hexapeptide-2 in a final concentration of 1 μM in culture medium, for 48 hours (2 applications per day).
The cells were rinsed and fixed in a fixing buffer (0.2% glutaraldehyde, 2% formaldehyde). The cells were then incubated at 37° C. without CO2 for 24 hours, with a solution of 1 mg/mL X-Gal in 40 mM of citric acid/phosphate (pH 6), 5 mM K3FeCN6, 5 mM K4FeCN6, 150 mM NaCl and 2 mM MgCl2. The cells were then examined under white light with a microscope (Nikon Eclipse E600 microscope).

Assay [4] concerns collagen I. Briefly: Expression of intracellular collagen I in human fibroblasts by flow cytometry. Type of assay: cell-based. The conditions noted are these: untreated = 100. The protocol: Protocol: Cultured human fibroblasts were treated with hexapeptide-2 in a concentration of 0.5 and 1 μM after dilution in a culture medium, for 48 hours (2 applications per day). At the same time, fibroblasts were treated with an activator for collagen I: TGF-β (R&D system, Ref. 240B). The fibroblasts were trypsinated and the cellular pellet was recovered. The cells were then fixed with cold methanol for 15 minutes at 4° C. Immunolabelling was carried out with the aid of a mouse monoclonal antibody specific for collagen I (Millipore, Ref: anti-Collagen Type I, Clone: 5D8-G9) coupled with a fluorochrome. Next, 10 000 cells were analysed by flow cytometry (Guava EasyCyte) in order to determine the amount of fluorescence in each of them.
For orientation: A flow cytometer gives signals particle by particle.

The subject of assay [5] is human fibroblasts made senescent by replicative senescence. Briefly: Activity of β-galactosidase in human fibroblasts made senescent by replicative senescence (long-term treatment). The format is cell-based. The conditions noted are these: 1 μM daily, long-term (about 3 months), general over passes. The protocol:
Protocol: Human fibroblasts were cultured in a specific medium and maintained under culture (for more than 27 passes) and treated or not treated with a daily application of hexapeptide-2 in a concentration of 1 μM in the culture medium, (i.e. 5 applications per week). A portion of the cells was frozen in each pass. Next, key passes were selected: passes 4, 12, 16, 20, 24 and 27. After freezing, the senescent phenotype of the fibroblasts treated or not treated with 1 μM hexapeptide-2 was evaluated by assaying the activity of β-galactosidase.
(§1) To this end, the cells were rinsed and fixed in a fixing buffer (0.2% glutaraldehyde, 2% formaldehyde). The cells were then incubated, at 37° C. without CO2 for 24 hours, with a solution of 1 mg/mL X-Gal in 40 mM of citric acid/phosphate (pH 6), 5 mM K3FeCN6, 5 mM K4FeCN6, 150 mM NaCl and 2 mM MgCl2. The cells were then examined under white light with a microscope (Nikon Eclipse E600 microscope).

Assay [6] has as its system miRNA-29a 3p. Briefly: Expression of miRNA-29a 3p in human fibroblasts made senescent by replicative senescence (long-term treatment). The format is cell-based. The protocol: Protocol: Human fibroblasts were cultured in a specific medium and maintained under a long-term culture treatment (for more than 24 passes, i.e. approximately 3 months), treated or not treated by means of a daily application of hexapeptide-2 in a concentration of 1 μM in culture medium, (5 applications per week). For each pass, a portion of the cells was frozen. Next, three passes were selected: passes 4, 12 and 24.
The miRNAs were extracted with the aid of an extraction kit (Ambion, Ref AMI1561), then reverse transcribed with a specific kit (Applied Biosystems, Ref 4374966). A real-time PCR was carried out in a thermocycler with the aid of a TaqMan Gene Expression Assay specific for miRNA-29a 3p (Applied Biosystems, 002112) and a TaqMan Gene Expression Assay specific for RNU44 used as an endogenic control (Applied Biosystems, 001094). The relative quantification of the expression of miRNA-29a 3p was carried out using the comparative Ct method.

The test system of assay [7] is senescent human fibroblasts by replicative senescence. Kind of assay: Activity of β-galactosidase in senescent human fibroblasts by replicative senescence (short-term treatment). The settings on record: 1 μM, 48 hours, general over passes. Type of assay: cell-based. The protocol:
Protocol: Human fibroblasts were cultured in a specific medium and maintained under long-term culture treatment (for more than 28 passes, i.e. approximately 3 months). A portion of the cells was frozen in each pass. Next, key passes were selected: passes 4, 12, 16, 20 and 28. After freezing, the fibroblasts were treated with 1 μM hexapeptide-2 in culture medium, for 48 hours (2 applications per day). The senescent phenotype of the fibroblasts treated or not treated with 1 μM hexapeptide-2 was evaluated by assaying the activity of the β-galactosidase.
as §1

A further assay relates to collagen. The settings on record: concentrations of 1 μM, 10 μM and 100 μM; cited from earlier work.
Assay [8] relates to prolidase. Briefly: Expression of prolidase in human fibroblasts (immunofluorescence). The format is cell-based. The conditions noted are these: 24 hours, 2 applications per day, untreated = 100. The protocol: Protocol: Cultured human fibroblasts were treated with hexapeptide-2 in a final concentration of 0.5 and 1 μM after dilution in a culture medium, for 24 hours (2 applications per day). The cells were then washed, fixed with cold methanol for 4 minutes at 4° C. The cells were incubated in the presence of a mouse monoclonal antibody specific for prolidase (LifeSpan BioSciences, Ref. LS-C115644), then of an anti-mouse secondary antibody coupled to a fluorochrome (Invitrogen, Ref. A21202). The cells were then examined under an epifluorescence microscope (Zeiss Axiovert 200M microscope). Quantification of the fluorescence was carried out from the photographs obtained.

The subject of assay [9] is collagen I. Briefly: Expression of collagen I in human skin in ex vivo culture. The settings on record: 48 hours, untreated = 100. The format is cell-based. The protocol:
(§2) Protocol: Samples of human skin were cultured at the air/liquid interface. Hexapeptide-2 was applied topically to the samples in concentrations of 0.5 and 1 μM after dilution in a culture medium, in an amount of 2 applications per day, then the samples were incubated for 48 hours at 37° C.
(§3) These skin samples were subsequently fixed with formaldehyde then included into paraffin. 4 μm sections were then produced.
(§4) Labelling of the collagens I and III was then carried out after demasking specific sites by microwave incubation then by treatment with trypsin. The immunolabelling was carried out with the aid of a rabbit polyclonal antibody specific for collagen I (Rockland, Ref. 600-401-103-0.5), a rabbit polyclonal antibody specific for collagen III (Rockland, Ref 600-401-105-0.5), then an anti-rabbit secondary antibody coupled to a fluorochrome (Invitrogen, Ref. A21206). The cells were then examined under an epifluorescence microscope (Zeiss Axiovert 200M microscope). A quantification of the fluorescence from the photographs obtained was carried out.

The test system of assay [10] is prolidase. Briefly: Activity of prolidase in human fibroblasts made senescent by replicative senescence (long-term treatment). The format is cell-based. The settings on record: 1 μM daily long-term. The protocol:
Protocol: Human fibroblasts were cultured in a specific medium and maintained under long-term culture treatment (for more than 20 passes, i.e. approximately 3 months), treated or not treated with the aid of a daily application of hexapeptide-2 in a concentration of 1 μM in culture medium, (5 applications per week). A portion of the cells was frozen for each pass. Next, two passes were selected: passes 12 and 20.
To this end, the cells were detached from their support with a solution of 150 mM NaCl. After recovering the cellular pellet and activating the prolidase with a solution containing 2 mM of MnCl2 for 2 hours at 37° C., the substrate for the prolidase was added: 47 mM of Glycine-Proline (Sigma, Ref. G3002), for 1 hour at 37° C. Next, the proline content contained in each sample was determined at a wavelength of 515 nm using Chinard's reagent. At the same time, a concentration range for proline was produced in order to establish a calibration curve. The protein content was determined using the BCA protein assay kit (Thermo Scientific, Ref. 23225), in order to relate the proline content with the number of proteins in each sample.

Assay [11] has as its system collagen I. Briefly: Expression of collagen I in human fibroblasts made senescent by transfection with the siRNA FOXO3a. Type of assay: cell-based. The settings on record: 0.5 or 1 μM, 48 hours, siRNA FOXO3a transfected cells. The protocol: Protocol: Cultured human fibroblasts were treated or not treated with a specific siRNA of FOXO3a (Invitrogen, Ref. HSS177176) in a final concentration of 25 nM using the technique of transfection by Lipofectamine™ RNAiMAX (Invitrogen, Ref. 56531) and treated or not treated with hexapeptide-2 in a concentration of 0.5 or 1 μM in culture medium, for 48 hours (2 applications per day).
The fibroblasts were trypsinated and the cellular pellet was recovered. The cells were then fixed with cold methanol for 15 minutes at 4° C. Immunolabelling was carried out with the aid of a mouse monoclonal antibody specific for collagen I (Millipore, Ref. anti-Collagen Type I, Clone: 5D8-G9) coupled with a fluorochrome. Next, 10 000 cells were analysed using flow cytometry (Guava EasyCyte) in order to determine the level of fluorescence in each of them.

A further assay deals with collagen III. Kind of assay: Expression of collagen III in human skin in ex vivo culture. The settings on record: 48 hours, untreated = 100. The format is cell-based. The protocol: as §2, §3, §4

Take `O=C(O)[C@@H]1CCCN1C(=O)OCc1ccccc1` [Cpz-Pro, reference compound]: the “Activity of prolidase (%)” value in the assay with prolidase [1] (10 mM) came out at 90%.
With `CC1=C(/C=C/C(C)=C/C=C/C(C)=C/C(=O)O)C(C)(C)CCC1` [retinoic acid, reference compound], the “Activity of prolidase (%)” value in the assay with prolidase [1] (1 μM, 24 hours) came out at 105%.
As for “His-D-Trp-Ala-Trp-D-Phe-Lys-NH2 (H[dW]AW[dF]K-NH2) [hexapeptide-2]”, the “reduction in the expression of miRNA-29a 3p” value is listed as −14% in the assay on miRNA-29a 3p [2] (fibroblasts of donor one); −27% in the assay on miRNA-29a 3p [2] (fibroblasts of donor three); −13% in the assay on miRNA-29a 3p [2] (fibroblasts of donor two); −16% in the assay on miRNA-29a 3p [6] (pass 12, 1 μM daily long-term); −7% with miRNA-29a 3p [6] (pass 24, 1 μM daily long-term). Also, the “Activity of prolidase (%)” value in the assay with prolidase [1] (0.5 μM, 24 hours) was 122%; with prolidase [1] (1 μM, 24 hours) it was 114%. Further, in [3], the “activity of β-galactosidase linked to senescence (number of blue-stained cells)” value was “visible reduction in the activity of β-galactosidase”. Further, the “Expression of collagen I (%)” value with collagen I [4] (0.5 μM, 48 hours) amounted to 120%; in the assay with collagen I [4] (1 μM, 48 hours), 145%; in the assay with collagen I [9] (0.5 μM topical) it was 119%; in the assay on collagen I [9] (1 μM topical), 154%. Besides, the “reduction in the activity of beta-galactosidase compared with untreated cells” value in assay [5] is −22%. Further, the “effect on the expression of miRNA-29a 3p” value with miRNA-29a 3p [6] (pass 4, 1 μM daily long-term) is listed as “no effect”. Moreover, the “reduction in the activity of the β-galactosidase compared with untreated cells” value in assay [7] is reported as −31%. The “effect on the secretion of collagen by fibroblasts cultured in vitro” value in the assay on collagen is recorded as “no effect”. Besides, the “Expression of prolidase (intensity/area of cells (%))” value with prolidase [8] (0.5 μM) is on record as 118%; in the assay with prolidase [8] (1 μM), 128%. In addition, in the assay on prolidase [10] (senescent cells (P20)), the “restoration in the activity of prolidase compared with untreated control cells in the same pass” value is 20%. Also, in the assay with prolidase [10] (young cells (P12)), the “effect on activity of prolidase” value was “little or no effect”. The “expression of collagen I in senescent cells” value in the assay with collagen I [11] was “smaller reduction in the expression of collagen I”. The “Expression of Collagen III (%)” value with collagen III (0.5 μM topical) and in the assay on collagen III (1 μM topical) was 155% throughout.
Consider “TGF-β: activator for collagen I (R&D system, Ref. 240B)”, for which the “Expression of collagen I (%)” value with collagen I [4] (10 ng/ml) amounted to 182%.
